The results in this text go back to patent US20240400554A1, “MONOACYLGLYCEROL LIPASE (MAGL) INHIBITORS FOR THE TREATMENT OF PAIN AND RELATED MEDICAL DISORDERS” (Humanwell Pharmaceutical US, Inc., priority 2023, published 2024).

The subject of this assay is 2% formalin model in SD rats. The assay can be described thus: Formalin-induced pain model. The conditions noted are these: 3 mg/kg p.o.; for inhibition in vivo at 3 mg/kg: Rattus norvegicus, po, 1 h, movements (lifts and licks) 0-60 min after formalin, read-out: MPE % (Maximum Possible Effect). In kind it is in vivo. The procedure: A diluted formalin solution is injected subcutaneously into the hind paw of rats using a microsyringe, creating a continuous noxious stimulus that induces spontaneous pain behaviors in the animals. The experiment can record the number of lifts and licks of the rat's foot through an autonomous movement analyzer to assess the degree of pain. This experiment uses a 2% formalin model in SD rats and tests the analgesic activity of compounds by oral administration. After injecting 2% formalin, the number of movements (lifts and licks of the injected foot) from 0-60 min after injecting the formalin solution is recorded and analyzed.
The Maximum Possible Effect (MPE %) is calculated as a percentage:
Note: (1) MPE % for each group is calculated with sham group MPE=100% and vehicle group MPE=0% as standards. (2) Movement counts of the sham group are subtracted to exclude the impact of background noise on the experiment. (2) “Sham” represents the average value of the sham group; “Vehicle-Sham” represents the average value of the vehicle group minus the sham group.
Results are presented as mean values with standard error. Data from each group are analyzed and graphed using GraphPad Prism 8 software. Statistical analysis is conducted using one-way ANOVA to determine statistical differences between groups, with t-tests used for comparisons between two groups. A p-value <0.05 is considered statistically significant.

Consider `O=C(OC(CO)C(F)(F)F)N1CC2C(C1)C2c1cc2n(n1)-c1ccc(F)cc1CC2` (stereo not shown) [Compound 12, 1,1,1-trifluoro-3-hydroxypropan-2-yl 6-(7-fluoro-4,5-dihydropyrazolo[1,5-a]quinolin-2-yl)-3-azabicyclo[3.1.0]hexane-3-carboxylate], for which the “Experimental Results (analgesic activity in the formalin model)” value (from here on “Experimental Results”) is “effective” and the inhibition in vivo at 3 mg/kg was determined as 64%.

Consider `O=C(OC(CO)C(F)(F)F)N1CCC(c2nn3c(c2Cl)CCc2cc(F)ccc2-3)CC1` (stereo not shown) [Compound 4, 1,1,1-trifluoro-3-hydroxypropan-2-yl 4-(3-chloro-7-fluoro-4,5-dihydropyrazolo[1,5-a]quinolin-2-yl)piperidine-1-carboxylate], for which the “Experimental Results” value was “effective” and the inhibition in vivo at 3 mg/kg stood at 51%.

In the case of `O=C(OC(CO)C(F)(F)F)N1CCC(c2nn3c(c2F)CCc2cc(F)ccc2-3)CC1` (stereo not shown) [Compound 3, 1,1,1-trifluoro-3-hydroxypropan-2-yl 4-(3,7-difluoro-4,5-dihydropyrazolo[1,5-a]quinolin-2-yl)piperidine-1-carboxylate], the “Experimental Results” value was “effective” and the inhibition in vivo at 3 mg/kg worked out at 61%.

For `O=C(OC(C(F)(F)F)C(F)(F)F)N1CCN(Cc2ccc(C(F)(F)F)cc2N2CCCC2)CC1` [ABX-1431, reference compound], the “Experimental Results” value is “effective” and the inhibition in vivo at 3 mg/kg was 33%.

As to `O=C(OC(C(F)(F)F)C(F)(F)F)N1CCC(c2nc3n(n2)-c2ccc(F)cc2CC3)CC1` [Compound 24, 1,1,1,3,3,3-hexafluoropropan-2-yl 4-(7-fluoro-4,5-dihydro-[1,2,4]triazolo[1,5-a]quinolin-2-yl)piperidine-1-carboxylate], the “Experimental Results” value is “effective” and the inhibition in vivo at 3 mg/kg was determined as 50%.
